Test results published in patent US20120039850A1, “HCV Combination Therapies Comprising Pegylated Interferon, Ribavirin and Telaprevir” (Janssen Pharmaceutica NV, priority 2009, published 2012).
Like-named read-outs stand apart in the source and are kept apart here.

What was measured:
genotype 1 HCV = experiment: PROVE 1 Phase 2b clinical trial: viral response (HCV RNA, Roche COBAS TaqMan assay); format: in vivo, human
From the text: Twenty percent of those treated with telaprevir were either Hispanic (10%) or African American (10%). In the control arm, 8% of patients were Hispanic and 12% were African American. […] On average, patients were 49 years old (21-63 years range) with a mean weight of 82.1 kg (46-136 kg range).
The Roche COBAS TaqMan® assay was used to measure HCV RNA (LOD 10 IU/mL). For viral kinetic modeling, values reported as <10 IU/mL were replaced with 5 IU/mL.
Severity of fibrosis was defined by histologic assessment from each center's local pathologist.
The Roche COBAS TaqMan® assay was used to measure HCV RNA (limit of detection 10 IU/mL). For viral kinetic modeling, values reported as <10 IU/mL were replaced with 5 IU/mL.

[1] = system: VX-950-resistant variants of HCV; experiment: IC50 shift of VX-950-resistant variants
replicon = experiment: Predicted human liver exposure relative to replicon assay IC50/IC90; conditions: dose range studied
HCV genotype 1 = experiment: Phase 1b trial (Study VX04-950-101); conditions: subjects infected with HCV genotype 1
[2] = design: species or system human; conditions: in vivo
[3] = in vivo

CCC[C@H](NC(=O)[C@@H]1[C@H]2CCC[C@H]2CN1C(=O)[C@@H](NC(=O)[C@@H](NC(=O)c1cnccn1)C1CCCCC1)C(C)(C)C)C(=O)C(=O)NC1CC1 [VX-950]
% with SVR (genotype 1 HCV): 62% | % with SVR (genotype 1 HCV; AA (African American)): 44% | % with SVR (genotype 1 HCV; L (Latino)): 65% | fold increase in IC50 [1]: 7-20 fold | predicted average liver concentration, fold of the replicon assay IC90 (replicon): up to 57 fold | antiviral activity (HCV genotype 1): substantial antiviral activity | pharmacokinetics among the different racial/ethnic groups [2]: No differences | oral bioavailability [3]: orally bioavailable
